What was measured:
[1] = xn = mol fraction of the nth substance listed; conditions: for electrical conductivity / viscosity / mass density: 101 kPa, Liquid; for electrical conductivity: Alternating current cell with electrodes; for viscosity: Concentric cylinders viscometry; for mass density: Vibrating tube method; for surface tension liquid-gas: Ring tensiometer
[2] = refractive index (Na D-line) (dimensionless); xn = mol fraction of the nth substance listed; conditions: 101 kPa, Liquid, Standard Abbe refractometry

CCCC[N+](CCCC)(CCCC)CCCC.[Cl-] [tetrabutylammonium chloride] + OCC(O)CO
Conditions	electrical conductivity, [1] [S/m]	mass density, [1] [kg/m3]	refractive index, [2]	surface tension liquid-gas, [1] [mN/m]	viscosity, [1] [mPa·s]
293.15 K, x1 = 0.167	0.0162	1040	1.4781	–	1100
293.15 K, x1 = 0.2	0.0192	1029	1.4776	–	950
293.15 K, x1 = 0.25	0.017	1014	1.4802	–	1170
303.15 K, x1 = 0.167	0.0307	1034	1.4754	47.1	541.3
303.15 K, x1 = 0.2	0.0358	1023	1.4747	46.7	476.1
303.15 K, x1 = 0.25	0.0309	1008	1.4774	46	580
313.15 K, x1 = 0.167	0.0492	1027	1.4726	46.2	261
313.15 K, x1 = 0.2	0.0525	1017	1.4718	45.9	225
313.15 K, x1 = 0.25	0.0485	1001	1.4745	44.9	293.3
323.15 K, x1 = 0.167	0.0788	1020	1.4697	45.5	137.3
323.15 K, x1 = 0.2	0.0863	1010	1.4687	44.9	115.7
323.15 K, x1 = 0.25	0.0781	995	1.4716	44.1	157
333.15 K, x1 = 0.167	0.114	1014	1.4668	45	78.4
333.15 K, x1 = 0.2	0.131	1004	1.4658	44.1	64.7
333.15 K, x1 = 0.25	0.117	988	1.4685	43.4	90.7
343.15 K, x1 = 0.167	0.141	1007	1.4638	44.2	47.6
343.15 K, x1 = 0.2	0.182	997	1.4626	43.5	41.9
343.15 K, x1 = 0.25	0.151	982	1.4652	42.7	56.7
353.15 K, x1 = 0.167	0.222	1000	1.4607	43.5	32
353.15 K, x1 = 0.2	0.264	991	1.4603	42.9	25
353.15 K, x1 = 0.25	0.24	976	1.462	41.9	36.7

CCCC[N+](CCCC)(CCCC)CCCC.[Cl-] [tetrabutylammonium chloride] + OCCO
Conditions	electrical conductivity, [1] [S/m]	mass density, [1] [kg/m3]	refractive index, [2]	surface tension liquid-gas, [1] [mN/m]	viscosity, [1] [mPa·s]
293.15 K, x1 = 0.2	0.000202	1145	1.4615	–	85.33
293.15 K, x1 = 0.25	0.000154	1130	1.4653	–	105
293.15 K, x1 = 0.333	9.91e-05	1105	1.4703	–	212
303.15 K, x1 = 0.2	0.000272	1138	1.4585	40.7	56.9
303.15 K, x1 = 0.25	0.000214	1123	1.4619	40.1	71.9
303.15 K, x1 = 0.333	0.000139	1099	1.4672	39.3	127
313.15 K, x1 = 0.2	0.000354	1132	1.4554	39.9	37.16
313.15 K, x1 = 0.25	0.000293	1117	1.4587	39.4	45.17
313.15 K, x1 = 0.333	0.00022	1092	1.4641	38.3	76.43
323.15 K, x1 = 0.2	0.00045	1125	1.4523	39.1	26.27
323.15 K, x1 = 0.25	0.000387	1110	1.4556	38.3	29.37
323.15 K, x1 = 0.333	0.00026	1086	1.4609	37.2	49.3
333.15 K, x1 = 0.2	0.000521	1119	1.4491	38.3	19.7
333.15 K, x1 = 0.25	0.000457	1104	1.4525	37.5	20.23
333.15 K, x1 = 0.333	0.000375	1079	1.4578	36.6	33.6
343.15 K, x1 = 0.2	0.000615	1112	1.445	37.5	14.85
343.15 K, x1 = 0.25	0.000567	1097	1.4495	36.8	14.53
343.15 K, x1 = 0.333	0.000385	1073	1.4545	35.7	23.53
353.15 K, x1 = 0.2	0.000722	1106	1.4427	36.8	10.5
353.15 K, x1 = 0.25	0.00062	1091	1.4469	36.1	10.7
353.15 K, x1 = 0.333	0.000468	1067	1.4509	34.9	16

CCCC[N+](CCCC)(CCCC)CCCC.[Cl-] [tetrabutylammonium chloride] + OCCOCCOCCO
Conditions	electrical conductivity, [1] [S/m]	mass density, [1] [kg/m3]	refractive index, [2]	surface tension liquid-gas, [1] [mN/m]	viscosity, [1] [mPa·s]
293.15 K, x1 = 0.5	0.0139	1027	1.48	–	870
293.15 K, x1 = 0.667	0.00681	1007	1.4851	–	–
293.15 K, x1 = 0.75	0.00221	996	1.4858	–	–
293.15 K, x1 = 0.8	0.00178	990	1.4871	–	–
303.15 K, x1 = 0.5	0.0228	1021	1.4772	40.6	543.8
303.15 K, x1 = 0.667	0.0149	1001	1.4821	40.1	1399
303.15 K, x1 = 0.75	0.005	990	1.4836	39.3	–
303.15 K, x1 = 0.8	0.0047	985	1.4841	40	3265.3
313.15 K, x1 = 0.5	0.0376	1015	1.4742	39.5	289.4
313.15 K, x1 = 0.667	0.0284	995	1.479	38.6	952.2
313.15 K, x1 = 0.75	0.0097	984	1.4806	38.3	7031.7
313.15 K, x1 = 0.8	0.0108	980	1.4811	38.4	1900.4
323.15 K, x1 = 0.5	0.055	1009	1.4711	38.8	166.4
323.15 K, x1 = 0.667	0.0458	989	1.476	38	493
323.15 K, x1 = 0.75	0.0154	978	1.4777	37.2	909.1
323.15 K, x1 = 0.8	0.0214	973	1.4781	37.3	862.9
333.15 K, x1 = 0.5	0.0805	1003	1.4678	38.2	100.8
333.15 K, x1 = 0.667	0.0676	983	1.4731	37.4	264.1
333.15 K, x1 = 0.75	0.0217	972	1.4747	36.6	452.1
333.15 K, x1 = 0.8	0.0252	968	1.4752	36.5	411.2
343.15 K, x1 = 0.5	0.11	997	1.4646	37.6	68.1
343.15 K, x1 = 0.667	0.0842	976	1.4701	36.4	154
343.15 K, x1 = 0.75	0.0282	966	1.4717	35.7	244.7
343.15 K, x1 = 0.8	0.0262	961	1.4722	35.6	204.5
353.15 K, x1 = 0.5	0.147	991	1.4614	37	44.7
353.15 K, x1 = 0.667	0.092	970	1.4673	35.6	91.3
353.15 K, x1 = 0.75	0.0319	960	1.4686	34.9	155.6
353.15 K, x1 = 0.8	0.0273	955	1.4692	34.6	99.9
